According to patent US9504676B2, “Molecules inhibiting a metabolic pathway involving the Syk protein tyrosine kinase and method for identifying said molecules” (CENTRE NATIONAL DE LA RECHERCHE SCIENTIFIQUE, priority 2008, dated 2016):
Like-named read-outs stand apart in the source and are kept apart here.

Legend:
[1] = tested on: mast cells; assay: Early and delayed mast cell responses induced by FcεRI aggregation; format: cell-based
Description: Binding of Btk and Vav with SLP-76 is critical for regulating PLC-γ activity on the membrane, calcium mobilisation and granule exocytosis^27, 28.
(§1) • 1) Chemical products and antibodies. A chemical bank of 3000 molecules (a varied subset) was acquired from ChemBridge, Inc. (San Diego, Calif.). Stocks of solutions of small molecules were prepared at a rate of 10 mM in DMSO (dimethylsulphoxide), except for C-13 (methyl 2-{5-[(3-benzyl-4-oxo-2-thioxo-1,3-thiazolidin-5-ylidene)methyl]-2-furyl}benzoate, ChemBridge ID No. 6197026) prepared in DMF (dimethylformamide). Unless specified otherwise, all the reagents were supplied by Sigma. Dinitrophenyl (DNP) hapten was acquired from Calbiochem. […] The binding of G4G11 with Syk was assessed by adding the 9E10 monoclonal antibody conjugated with HRP detecting the amino acid sequence EQKLISEEDLN of human c-myc protein located at the C-terminal end of the scFv fragment. To generate Syk mutants, targeted mutagenesis was used on GST:Syk 6-242 protein and the binding of G4G11 with the mutants was assessed in the presence of 5 μM of C-13. • 3) Cells, culture conditions and functional tests. […] The level of β-hexosaminidase released was measured 10 min later and the TNF-α titration was performed by means of a cytotoxicity test on L929 cells as described previously^10, 3 hours after stimulation. […]

[2] = tested on: Akt; assay: Phosphorylation of Akt (PI3K activity marker, Fyn-dependent cascade); format: cell-based; conditions: RBL-2H3 cells and BMMCs
Description: In mast cells, the signalling cascade Fyn/Gab2/PI3K gives rise to the activation of PI3K and the generation of PI-3,4,5-P3 recruiting a number of proteins containing a pleckstrin homology domain (PH), including Btk and PLC-γ on the plasma membrane^19.
as §1, with “Sigma.” for “Sigma. Dinitrophenyl (DNP) hapten was acquired from Calbiochem.”

COC(=O)c1ccccc1-c1ccc(/C=C2/SC(=S)N(Cc3ccccc3)C2=O)o1 [Molecule C-13, methyl 2-{5-[(3-benzyl-4-oxo-2-thioxo-1,3-thiazolidin-5-ylidene)methyl]-2-furyl}benzoate]
IC50 ([1]; read-out: estimated IC50, delayed mast cell response (TNF-α secretion)): ~2 µM | IC50 ([1]; read-out: estimated IC50, early mast cell response (β-hexosaminidase release)): ~2 µM | Fyn-dependent cascade (phosphorylation of Akt) [2]: did not affect
